{"source": "paper PMC9706486", "about": "“INOSITOL (1,3,4) TRIPHOSPHATE 5/6 KINASE1-dependent inositol polyphosphates regulate auxin responses in Arabidopsis” (Plant Physiology, 2022)"}
{"biological_target": "T1, TIR1–ASK1–IAA7 auxin receptor complex (ASK1–TIR1–Aux/IAA–IAA receptor complex) (Arabidopsis thaliana, UniProt Q570C0)", "T1 construct": "ASK1–TIR1 co-purified from insect cells; IAA7 ORF as recombinant His8-MBP fusion (pET28-His8-MBP vector); mixed at molar ratio 1:3 (ASK1–TIR1 : IAA7); with SKP1-like protein 1A; Auxin-responsive protein IAA7", "T1 sequence (Q570C0 1-594)": "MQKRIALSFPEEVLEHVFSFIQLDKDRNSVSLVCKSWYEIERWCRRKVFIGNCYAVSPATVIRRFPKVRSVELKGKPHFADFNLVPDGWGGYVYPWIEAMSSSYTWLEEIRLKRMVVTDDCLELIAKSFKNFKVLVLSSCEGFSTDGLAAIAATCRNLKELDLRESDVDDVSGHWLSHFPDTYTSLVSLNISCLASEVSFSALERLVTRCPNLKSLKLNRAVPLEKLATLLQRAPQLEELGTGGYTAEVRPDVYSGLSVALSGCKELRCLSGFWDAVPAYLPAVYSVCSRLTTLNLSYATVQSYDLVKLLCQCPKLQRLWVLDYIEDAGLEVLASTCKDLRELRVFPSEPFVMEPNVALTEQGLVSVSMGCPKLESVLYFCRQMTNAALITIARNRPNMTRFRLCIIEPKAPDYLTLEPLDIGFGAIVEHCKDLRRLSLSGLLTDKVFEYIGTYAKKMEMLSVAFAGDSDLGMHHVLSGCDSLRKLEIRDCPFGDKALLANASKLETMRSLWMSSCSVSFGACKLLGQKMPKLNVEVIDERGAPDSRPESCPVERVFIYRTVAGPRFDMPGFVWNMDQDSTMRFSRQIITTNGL", "T1 sequence (Q39255 1-160 partner)": "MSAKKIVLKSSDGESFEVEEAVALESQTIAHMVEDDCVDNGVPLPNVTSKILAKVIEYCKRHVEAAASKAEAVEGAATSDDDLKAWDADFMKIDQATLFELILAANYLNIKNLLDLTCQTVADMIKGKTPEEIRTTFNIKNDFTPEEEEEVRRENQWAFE", "T1 sequence (Q38825 1-243 partner)": "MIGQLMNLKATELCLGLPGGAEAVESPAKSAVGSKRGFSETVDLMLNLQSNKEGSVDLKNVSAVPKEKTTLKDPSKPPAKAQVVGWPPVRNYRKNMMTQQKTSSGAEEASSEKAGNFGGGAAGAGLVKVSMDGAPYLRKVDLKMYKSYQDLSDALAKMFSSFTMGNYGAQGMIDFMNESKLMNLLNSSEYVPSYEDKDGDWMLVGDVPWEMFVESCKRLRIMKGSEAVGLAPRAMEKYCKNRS", "assay": "competitive radioligand displacement of [3H]-InsP6, Ni-NTA pull-down", "type": "binding", "conditions": "not given", "units": {"IC50": "µM"}}
{"compound": "O=P(O)(O)O[C@H]1[C@@H](OP(=O)(O)O)[C@H](OP(=O)(O)O)[C@@H](OP(=O)(O)OP(=O)(O)O)[C@H](OP(=O)(O)O)[C@H]1OP(=O)(O)O", "note": "[5-InsP7]", "IC50": 0.02}
{"compound": "O=P(O)(O)O[C@@H]1[C@@H](OP(=O)(O)O)[C@H](OP(=O)(O)O)[C@@H](O)[C@@H](OP(=O)(O)O)[C@H]1OP(=O)(O)O", "note": "[InsP5 [3-OH]]", "IC50": 0.031}
{"compound": "O=P(O)(O)O[C@H]1[C@H](OP(=O)(O)O)[C@@H](OP(=O)(O)O)[C@H](OP(=O)(O)O)[C@@H](OP(=O)(O)O)[C@H]1OP(=O)(O)O", "note": "[InsP6]", "IC50": 0.019}
{"compound": "O=P(O)(O)O[C@H]1[C@@H](OP(=O)(O)O)[C@H](OP(=O)(O)O)[C@@H](O)[C@H](OP(=O)(O)O)[C@H]1OP(=O)(O)O", "note": "[InsP5 [5-OH]]", "IC50": 0.034}
{"compound": "O=P(O)(O)O[C@@H]1[C@@H](OP(=O)(O)O)[C@@H](OP(=O)(O)O)[C@@H](O)[C@H](OP(=O)(O)O)[C@H]1OP(=O)(O)O", "note": "[InsP5 [1-OH]]", "IC50": 0.114}
{"biological_target": "T1, TIR1–ASK1–IAA7 auxin receptor complex (ASK1–TIR1–Aux/IAA–IAA receptor complex)", "assay": "auxin-dependent pull-down of ASK1–TIR1 with [3H]-InsP6 by His8-MBP-IAA7", "type": "binding", "conditions": "0.1 uM IAA versus no auxin; pH 7.5, 4 °C; read-out is recovered [3H]-InsP6"}
{"compound": "O=C(O)Cc1c[nH]c2ccccc12", "note": "[IAA]", "auxin-dependent pull-down of ASK1-TIR1 with [3H]-InsP6 by His8-MBP-IAA7": "auxin is critical for the interaction between ASK–TIR1 and Aux/IAA protein"}
